Source: patent publication US4835162A (priority 1987, dated 1989)
Values joined by “and” are separate entries in the source; they are usually repeats but may differ in a detail not shown here. Equal entries are not always repeated. “Also recorded” adds a separate entry of the source. Where two headings read alike, the source gives them in different places.

Key:
[1] = tested on: rats; details: rat, in vivo
[2] = tested on: rats; details: rat, in vivo; remark: listed apart in the source
[3] = tested on: rats; details: rat, in vivo; remark: listed apart in the source
[4] = tested on: rats; experiment: animal or person; details: Rattus norvegicus, ip, 7 min, read-out: % Antagonism (seizures)
[5] = tested on: rats; parameters: species or system Sprague-Dawley male rats; Blockade of (nicotine-induced prostration) EC50: unit not given here; details: rat, in vivo
[6] = tested on: rats; experiment: animal or person; details: Rattus norvegicus, iv, read-out: Antagonistic dose needed to completely block elevation in systolic blood pressure
[7] = target: nicotinic receptors (rat brain membranes); details: read-out: 3H-MCC Binding IC50
[8] = target: nicotinic receptors (rat brain membranes); type: binding; details: for IC50: read-out: 3H-Nicotine Binding IC50
[9] = in vivo; cited from earlier work
[10] = target: nicotinic receptors (rat brain membranes); type: binding
[11] = tested on: rats; details: rat, in vivo; remark: listed apart in the source
[12] = tested on: rats; details: rat, in vivo; remark: listed apart in the source
[13] = target: nicotinic receptors (rat brain membranes); type: binding; details: pH 7; read-out: [3H]-MCC IC50
[14] = tested on: rats or mice; details: in vivo; cited from earlier work
[15] = tested on: rat brain; details: cited from earlier work
[16] = tested on: nicotinic receptors (rat brain membranes)
[17] = tested on: rat liver microsomal system; details: cited from earlier work

In the case of C[N+](C)(C)CCOC(=O)c1ccccc1 [TMAE benzoate, benzoylcholine], the “Antagonistic dose needed to completely block elevation in systolic blood pressure” value [1] is reported as 1.5 ± 0.3 mg/kg, the “% Antagonism (protection against nicotine mortality)” value [2] is reported as 63% and the Mortality [2] is reported as 3/10. The Seizures [3] was 1/8, the “blockade of seizure activity” value [3] was 78% and the responders at 25 mg/kg [4] was 78%. For the same compound, the “Blockade of (nicotine-induced prostration) EC50” value [5] was 10, the “times as effective as the DMAE ester” value [5] was 5 times and the ED100 [6] was 1.5 mg/kg.
For C[N+](C)(C)CCOC(=O)Nc1ccccc1 [TMAE phenylcarbamate], the “% Antagonism (protection against nicotine mortality)” value [2] was 50%, the Mortality [2] was 4/10 and the Seizures [3] was 1/9. The “protection against seizures, in words” value [3] was “almost complete protection”, the responders at 25 mg/kg [4] was 89% and the “Blockade of (nicotine-induced prostration) EC50” value [5] was 200. For the same compound, the “blockade of nicotine-induced prostration / antagonism, in words” value [5] was “next in effectiveness and of comparable activity”, the IC50 [7] was 800 nM and the ED100 [6] was 5 ± 1 mg/kg. For the same compound, the IC50 [8] was 6000 nM.
For C[N+](C)(C)CCOC(=O)C1CCCCC1 [TMAE cyclohexylcarboxylate, choline ester of cyclohexylcarboxylic acid], the “% Antagonism (protection against nicotine mortality)” value [2] was 66%, the Seizures [3] was 1/8 and the “blockade of seizure activity” value [3] was 78%. For the same compound, the responders at 25 mg/kg [4] was 78%, the “Blockade of (nicotine-induced prostration) EC50” value [5] was 10 and the IC50 [7] was 50 nM. The IC50 [8] was 80 nM.
For CN1[C@@H](CC(=O)c2ccccc2)CCC[C@H]1C[C@H](O)c1ccccc1 [α-lobeline, reference compound], the “Antagonistic dose needed to completely block elevation in systolic blood pressure” value [1] was 0.2 ± 0.05 mg/kg, the “% Antagonism (reduction of nicotine mortality)” value [2] was 75% and the Mortality [2] was 2/10. For the same compound, the “pharmacologic effects, in words” value [9] was “suppress the desire for tobacco; also recorded: hypertensive action resulting from the stimulation of the carotid body; also recorded: broncio-construction; also recorded: brochoarrythmia”, the Seizures [3] was 1/8 and the “protection against seizures, in words” value [3] was “complete protection against seizures”. The responders at 5 mg/kg [4] was 0%, the “Blockade of (nicotine-induced prostration) EC50” value [5] was 10 and the “blockade of nicotine-induced prostration / antagonism, in words” value [5] was “most effective antagonist”. For the same compound, the IC50 [7] was 0.7 nM, the ED100 [6] was 0.2 mg/kg and the “binding affinity for nicotine receptor, in words” value [8] was “even greater affinity than (-)-nicotine for the receptor; also recorded: very high affinity for brain nicotine receptors”. It also gave an IC50 [8] of 5 nM.
With CN1[C@@H]2CC[C@H]1C[C@@H](OC(=O)C(CO)c1ccccc1)C2 (stereo partly shown) [atropine, reference compound] the “protection against nicotine mortality, in words” value [2] was “ineffective”, the Seizures [3] was 6/6 and the responders at 25 mg/kg [4] was 0%. The “blockade of nicotine-induced prostration / antagonism, in words” value [5] was “inactive”.
With C[N+]1(C)CCCC1c1cccnc1 (stereo not shown) [N'--methyl nicotonium] the IC50 ([10]; pH 7, read-out: [3H]-nicotine IC50) was 7000 nM, the “Prostration EC50” value [11] was 100 and the “decrease in psychotropic potency with quaternization of nicotine” value [12] was 50 fold. It also gave an IC50 ([7]; pH 7.5) of 4000 nM, an IC50 [13] of 4000 nM and an IC50 ([8]; pH 7.5) of 7000 nM. The “potency in producing seizures and mortality, in words” value [14] was “more potent than nicotine in producing seizures and mortality”.
For CC(=O)OCC[N+](C)(C)C [[^3 H]-acetylcholine], the “displaceability of [3H]-acetylcholine binding by muscarinic antagonists” value [15] is listed as “displaceable by low concentrations of muscarinic antagonists”.
With CN(C)CCOC(=O)c1ccccc1 [DMAE benzoate, dimethylaminoethyl benzoate] the “% Antagonism (seizures)” value [3] was 45%, the Seizures [3] was 5/9 and the “Blockade of (nicotine-induced prostration) EC50” value [5] was 100. It also gave an ED100 [6] of 10 ± 25 mg/kg.
For CN1CCCC1c1cccnc1 (single isomer, unassigned; (-)) [[^3 H]-nicotine, (-)-[^3 H]-nicotine], the “Bmax of higher affinity site, [3H]-nicotine” value [16] was 5e-15 mol/mg, the “Bmax of lower affinity site, [3H]-nicotine” value [16] was 1e-14 mol/mg and 2e-14 mol/mg and the “displaceability of [3H]-nicotine binding by muscarinic antagonists” value [10] was “not displaceable by muscarinic cholinergic antagonists”.
With CN1CCCC1c1cccnc1 (single isomer, unassigned; (-)) [(-)-nicotine] the “increase in systolic blood pressure by nicotine” value ([1]; iv) was 25%, the “Prostration EC50” value [11] was 2 and the “agonist or inactive on prostration, in words” value [11] was “agonists”. The duration of prostration [11] was 2 to 4 min, the “onset of prostration response” value [11] was 1 to 3 s and the “respiratory effect, in words” value [11] was “deep diaphragmatic breathing and a decreased respiratory rate”. For the same compound, the Mortality ([2]; ip, 3 mg/kg) was 8/10, the “signs after nicotine, in words” value [3] was “prostration followed by tremors, fasciculations, cyanosis and labored breathing, and myoclonic seizures” and the Seizures ([3]; ip, 1.5 mg/kg) was 10/10. The “dose producing effect: prostration, in words” value [12] was “prostration of all four limbs”, the “times more effective than (+)-enantiomer of nicotine (prostration)” value [12] was 20 times and the “times more potent than N'-ethyl analogue (prostration)” value [12] was 10 times. The “times more potent than N'-propyl analogue (prostration)” value [12] was 40 times, the “times more potent than nicotonium analogue (prostration)” value [12] was 50 times and the “volume of nicotine solution required to produce prostration” value [12] was 1-2 μl of a 10^-3 M solution.
For CNC(=O)OCC[N+](C)(C)C [MCC, Methylcarbamylcholine], the metabolism [17] is given as “metabolized by a rat liver microsomal system”, the “Prostration EC50” value [11] is given as 10 and the duration of prostration [11] is given as “over 20 min”. For the same compound, the “increase in psychotropic potency after quaternization of DMAE methyl carbamate” value [12] was “over 10 fold” and the “potency relative to (-)-nicotine (prostration)” value [12] was 1/5.
With C[N+](C)(C)CCOC(=S)Nc1ccccc1 [TMAE phenylthiocarbamate] the “% Antagonism (protection against nicotine mortality)” value [2] was 63%, the Mortality [2] was 3/10 and the “Blockade of (nicotine-induced prostration) EC50” value [5] was 50. For the same compound, the “blockade of nicotine-induced prostration / antagonism, in words” value [5] was “next in effectiveness and of comparable activity”, the IC50 [7] was 500 nM and the ED100 [6] was 4 ± 0.8 mg/kg. For the same compound, the IC50 [8] was 500 nM.
